Test system: 253994-281-T-J1-PDC KRAS-mutant spheroids with HUVEC/MSC, viability
Experiment: Anticancer human tumor 253994-281-T-J1-PDC patient-derived colorectal carcinoma cell line growth inhibition [KRAS2]
Details: for IC50: curve of first compound; for viability, T/C: stronger effect = lower value
Method in brief: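 Combination screen of spheroid viability in tumor-cell co-cultures with endothelial (HUVEC) and mesenchymal stem cell stroma. Each agent was tested in half-log dilutions, topping at clinical Cmax or at 10 microM without a known Cmax.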

[1] = second compound 0.1 µM, first compound 0.0316 µM
[2] = second compound 0.1 µM, first compound 0.1 µM
[3] = second compound 0.1 µM, first compound 0.316 µM
[4] = second compound 0.1 µM, first compound 1 µM
[5] = second compound 0.1 µM, first compound 3.16 µM
[6] = second compound 0.1 µM, first compound 10 µM
[7] = second compound 0.316 µM, first compound 0.0316 µM
[8] = second compound 0.316 µM, first compound 0.1 µM
[9] = second compound 0.316 µM, first compound 0.316 µM
[10] = second compound 0.316 µM, first compound 1 µM
[11] = second compound 0.316 µM, first compound 3.16 µM
[12] = second compound 0.316 µM, first compound 10 µM
[13] = second compound 1 µM, first compound 0.0316 µM
[14] = second compound 1 µM, first compound 0.1 µM
[15] = second compound 1 µM, first compound 0.316 µM
[16] = second compound 1 µM, first compound 1 µM
[17] = second compound 1 µM, first compound 3.16 µM
[18] = second compound 1 µM, first compound 10 µM
[19] = second compound 3.16 µM, first compound 0.0316 µM
[20] = second compound 3.16 µM, first compound 0.1 µM
[21] = second compound 3.16 µM, first compound 0.316 µM
[22] = second compound 3.16 µM, first compound 1 µM
[23] = second compound 3.16 µM, first compound 3.16 µM
[24] = second compound 3.16 µM, first compound 10 µM
[25] = second compound 10 µM, first compound 0.0316 µM
[26] = second compound 10 µM, first compound 0.1 µM
[27] = second compound 10 µM, first compound 0.316 µM
[28] = second compound 10 µM, first compound 1 µM
[29] = second compound 10 µM, first compound 3.16 µM
[30] = second compound 10 µM, first compound 10 µM
[31] = second compound 0.1 µM, first compound 0.00316 µM
[32] = second compound 0.1 µM, first compound 0.01 µM
[33] = second compound 0.316 µM, first compound 0.00316 µM
[34] = second compound 0.316 µM, first compound 0.01 µM
[35] = second compound 1 µM, first compound 0.00316 µM
[36] = second compound 1 µM, first compound 0.01 µM
[37] = second compound 3.16 µM, first compound 0.00316 µM
[38] = second compound 3.16 µM, first compound 0.01 µM
[39] = second compound 10 µM, first compound 0.00316 µM
[40] = second compound 10 µM, first compound 0.01 µM
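Also: spheroids exposed to agents for seven days before readout.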
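For viability, T/C in this document: percent of DMSO vehicle control viability.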

## CC(C)NCC(C(=O)N1CCN(c2ncnc3c2C(C)CC3O)CC1)c1ccc(Cl)cc1 (stereo not given) + COc1cc2nc(C)nc(NC(C)c3cc(N)cc(C(F)(F)F)c3)c2cc1OC1CCOC1
Second compound 0.1 µM
  IC50: > 10000 nM
Second compound 0.316 µM
  IC50: > 10000 nM
Second compound 1 µM
  IC50: > 10000 nM
Second compound 3.16 µM
  IC50: > 10000 nM
Second compound 10 µM
  IC50: > 10000 nM
[1]
  viability, T/C: 86.1%
[2]
  viability, T/C: 97.9%
[3]
  viability, T/C: 92.5%
[4]
  viability, T/C: 94.6%
[5]
  viability, T/C: 93%
[6]
  viability, T/C: 97.1%
[7]
  viability, T/C: 86.3%
[8]
  viability, T/C: 85.7%
[9]
  viability, T/C: 78.7%
[10]
  viability, T/C: 87.6%
[11]
  viability, T/C: 82%
[12]
  viability, T/C: 90.2%
[13]
  viability, T/C: 84.3%
[14]
  viability, T/C: 83.4%
[15]
  viability, T/C: 94.1%
[16]
  viability, T/C: 86.2%
[17]
  viability, T/C: 92.4%
[18]
  viability, T/C: 96.4%
[19]
  viability, T/C: 83.2%
[20]
  viability, T/C: 87.4%
[21]
  viability, T/C: 85.9%
[22]
  viability, T/C: 94.2%
[23]
  viability, T/C: 92.3%
[24]
  viability, T/C: 74.7%
[25]
  viability, T/C: 67.9%
[26]
  viability, T/C: 79.8%
[27]
  viability, T/C: 85.5%
[28]
  viability, T/C: 79.5%
[29]
  viability, T/C: 71.2%
[30]
  viability, T/C: 83.7%

## CCN1CCN(Cc2ccc(Nc3ncc(F)c(-c4cc(F)c5nc(C)n(C(C)C)c5c4)n3)nc2)CC1 + COc1cc2nc(C)nc(NC(C)c3cc(N)cc(C(F)(F)F)c3)c2cc1OC1CCOC1
Second compound 0.1 µM
  IC50: 390 nM
Second compound 0.316 µM
  IC50: 317 nM
Second compound 1 µM
  IC50: 321 nM
Second compound 3.16 µM
  IC50: 236 nM
Second compound 10 µM
  IC50: 162 nM
[31]
  viability, T/C: 102%
[32]
  viability, T/C: 93.3%
[1]
  viability, T/C: 83%
[2]
  viability, T/C: 62.9%
[3]
  viability, T/C: 55.3%
[4]
  viability, T/C: 38.9%
[33]
  viability, T/C: 79.6%
[34]
  viability, T/C: 86.8%
[7]
  viability, T/C: 74.3%
[8]
  viability, T/C: 64.4%
[9]
  viability, T/C: 51.3%
[10]
  viability, T/C: 33.7%
[35]
  viability, T/C: 80.4%
[36]
  viability, T/C: 90.5%
[13]
  viability, T/C: 74.7%
[14]
  viability, T/C: 61.8%
[15]
  viability, T/C: 53.3%
[16]
  viability, T/C: 35.5%
[37]
  viability, T/C: 90.2%
[38]
  viability, T/C: 73.9%
[19]
  viability, T/C: 70.8%
[20]
  viability, T/C: 57.6%
[21]
  viability, T/C: 53.3%
[22]
  viability, T/C: 29.4%
[39]
  viability, T/C: 78%
[40]
  viability, T/C: 86.3%
[25]
  viability, T/C: 72.7%
[26]
  viability, T/C: 53.8%
[27]
  viability, T/C: 40.6%
[28]
  viability, T/C: 8.08%

## CCNC(=O)CC1N=C(c2ccc(Cl)cc2)c2cc(OC)ccc2-n2c(C)nnc21 (stereo not given) + COc1cc2nc(C)nc(NC(C)c3cc(N)cc(C(F)(F)F)c3)c2cc1OC1CCOC1
Second compound 0.1 µM
  IC50: > 10000 nM
Second compound 0.316 µM
  IC50: > 10000 nM
Second compound 1 µM
  IC50: 7760 nM
Second compound 3.16 µM
  IC50: 5930 nM
Second compound 10 µM
  IC50: 3250 nM
[1]
  viability, T/C: 99%
[2]
  viability, T/C: 93.9%
[3]
  viability, T/C: 78.1%
[4]
  viability, T/C: 76.5%
[5]
  viability, T/C: 70.5%
[6]
  viability, T/C: 71.8%
[7]
  viability, T/C: 87.5%
[8]
  viability, T/C: 97.6%
[9]
  viability, T/C: 77.9%
[10]
  viability, T/C: 68.4%
[11]
  viability, T/C: 73%
[12]
  viability, T/C: 51.1%
[13]
  viability, T/C: 92.9%
[14]
  viability, T/C: 95.4%
[15]
  viability, T/C: 79.8%
[16]
  viability, T/C: 69.5%
[17]
  viability, T/C: 61%
[18]
  viability, T/C: 46.7%
[19]
  viability, T/C: 86.3%
[20]
  viability, T/C: 89.1%
[21]
  viability, T/C: 78.5%
[22]
  viability, T/C: 70.3%
[23]
  viability, T/C: 52.7%
[24]
  viability, T/C: 47.2%
[25]
  viability, T/C: 82.6%
[26]
  viability, T/C: 83.2%
[27]
  viability, T/C: 87.1%
[28]
  viability, T/C: 62.9%
[29]
  viability, T/C: 53.4%
[30]
  viability, T/C: 31.6%

## Cn1ncnc1[C@H]1c2n[nH]c(=O)c3cc(F)cc(c23)N[C@@H]1c1ccc(F)cc1 + COc1cc2nc(C)nc(NC(C)c3cc(N)cc(C(F)(F)F)c3)c2cc1OC1CCOC1
Second compound 0.1 µM
  IC50: > 100 nM
Second compound 0.316 µM
  IC50: > 100 nM
Second compound 1 µM
  IC50: > 100 nM
Second compound 3.16 µM
  IC50: > 100 nM
Second compound 10 µM
  IC50: > 100 nM
Second compound 0.1 µM, first compound 0.000316 µM
  viability, T/C: 92.5%
Second compound 0.1 µM, first compound 0.001 µM
  viability, T/C: 95.7%
[31]
  viability, T/C: 79%
[32]
  viability, T/C: 90.8%
[1]
  viability, T/C: 92.5%
[2]
  viability, T/C: 78.8%
Second compound 0.316 µM, first compound 0.000316 µM
  viability, T/C: 80%
Second compound 0.316 µM, first compound 0.001 µM
  viability, T/C: 84.5%
[33]
  viability, T/C: 86.1%
[34]
  viability, T/C: 80.4%
[7]
  viability, T/C: 91.9%
[8]
  viability, T/C: 78.1%
Second compound 1 µM, first compound 0.000316 µM
  viability, T/C: 88.5%
Second compound 1 µM, first compound 0.001 µM
  viability, T/C: 92.2%
[35]
  viability, T/C: 86.6%
[36]
  viability, T/C: 89.1%
[13]
  viability, T/C: 87.1%
[14]
  viability, T/C: 85.3%
Second compound 3.16 µM, first compound 0.000316 µM
  viability, T/C: 87.5%
Second compound 3.16 µM, first compound 0.001 µM
  viability, T/C: 86.5%
[37]
  viability, T/C: 91.7%
[38]
  viability, T/C: 89.7%
[19]
  viability, T/C: 77.2%
[20]
  viability, T/C: 85.5%
Second compound 10 µM, first compound 0.000316 µM
  viability, T/C: 80.9%
Second compound 10 µM, first compound 0.001 µM
  viability, T/C: 84.7%
[39]
  viability, T/C: 72.6%
[40]
  viability, T/C: 77.7%
[25]
  viability, T/C: 83.7%
[26]
  viability, T/C: 68.3%
